# According to PubChem BioAssay (NCI):
#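 Results reflect a 48-hour exposure of cells in 96-well plates to compound at five concentrations. Here, GI50 denotes the concentration required for 50% inhibition of growth. TGI: total growth inhibition.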
# Experiments:
# Test in all cases: NCI anticancer screen, dose series, 48 h
# M14 melanoma = test system: M14 melanoma
# HOP-92 NSCLC = test system: HOP-92 NSCLC
# K-562 leukemia = test system: K-562 leukemia
# EKVX NSCLC = test system: EKVX NSCLC
# MALME-3M melanoma = test system: MALME-3M melanoma
# HOP-62 NSCLC = test system: HOP-62 NSCLC
# SNB-75 CNS = test system: SNB-75 CNS
# HS 578T breast = test system: HS 578T breast
# LOX IMVI melanoma = test system: LOX IMVI melanoma
# SK-MEL-5 melanoma = test system: SK-MEL-5 melanoma
# A498 renal = test system: A498 renal
# HCT-15 colon = test system: HCT-15 colon
# RXF 393 renal = test system: RXF 393 renal
# OVCAR-8 ovarian = test system: OVCAR-8 ovarian
# RPMI-8226 leukemia = test system: RPMI-8226 leukemia
# MDA-MB-231 breast = test system: MDA-MB-231 breast
# NCI-H23 lung = test system: NCI-H23 lung
# SF-268 CNS = test system: SF-268 CNS
# MCF7 breast = test system: MCF7 breast
# KM12 colon = test system: KM12 colon
# SK-MEL-28 melanoma = test system: SK-MEL-28 melanoma
# HCC-2998 colon = test system: HCC-2998 colon
# OVCAR-3 ovarian = test system: OVCAR-3 ovarian
# NCI-H522 lung = test system: NCI-H522 lung
# OVCAR-4 ovarian = test system: OVCAR-4 ovarian
# IGROV1 ovarian = test system: IGROV1 ovarian
# OVCAR-5 ovarian = test system: OVCAR-5 ovarian
# SN12C renal = test system: SN12C renal
# UO-31 renal = test system: UO-31 renal
# A549 NSCLC = test system: A549 NSCLC
# HCT-116 colon = test system: HCT-116 colon
# ACHN renal = test system: ACHN renal
# UACC-62 melanoma = test system: UACC-62 melanoma
# UACC-257 melanoma = test system: UACC-257 melanoma
# T-47D breast = test system: T-47D breast
# HT29 colon = test system: HT29 colon
# CAKI-1 renal = test system: CAKI-1 renal
# SK-MEL-2 melanoma = test system: SK-MEL-2 melanoma
# CCRF-CEM leukemia = test system: CCRF-CEM leukemia
# NCI-H226 lung = test system: NCI-H226 lung
# NCI-H460 lung = test system: NCI-H460 lung
# SW-620 colon = test system: SW-620 colon
# MOLT-4 leukemia = test system: MOLT-4 leukemia
# TK-10 renal = test system: TK-10 renal
# U251 CNS = test system: U251 CNS
# SF-295 CNS = test system: SF-295 CNS
# BT-549 breast = test system: BT-549 breast
# SR leukemia = test system: SR leukemia
# DU-145 prostate = test system: DU-145 prostate
# SK-OV-3 ovarian = test system: SK-OV-3 ovarian
# 786-0 renal = test system: 786-0 renal
# COLO 205 colon = test system: COLO 205 colon
# MDA-MB-435 = test system: MDA-MB-435
# SNB-19 CNS = test system: SNB-19 CNS
# SF-539 CNS = test system: SF-539 CNS
# NCI/ADR-RES ovarian = test system: NCI/ADR-RES ovarian
# PC-3 prostate = test system: PC-3 prostate
# HL-60(TB) leukemia = test system: HL-60(TB) leukemia
structure (smiles),measurement,setting,value
O=c1[nH]c2ccc(N=Cc3c(O)[nH]c4ccccc34)cc2[nH]1,GI50,M14 melanoma,> 25 µM
same,TGI,M14 melanoma,> 25 µM
same,GI50,HOP-92 NSCLC,23.2 µM
same,TGI,HOP-92 NSCLC,> 25 µM
same,GI50,K-562 leukemia,> 25 µM
same,TGI,K-562 leukemia,> 25 µM
same,GI50,EKVX NSCLC,> 25 µM
same,TGI,EKVX NSCLC,> 25 µM
same,GI50,MALME-3M melanoma,> 25 µM
same,TGI,MALME-3M melanoma,> 25 µM
same,GI50,HOP-62 NSCLC,> 17.7 µM
same,TGI,HOP-62 NSCLC,> 25 µM
same,GI50,SNB-75 CNS,> 14.7 µM
same,TGI,SNB-75 CNS,> 25 µM
same,GI50,HS 578T breast,> 6.4 µM
same,TGI,HS 578T breast,> 25 µM
same,GI50,LOX IMVI melanoma,> 25 µM
same,TGI,LOX IMVI melanoma,> 25 µM
same,GI50,SK-MEL-5 melanoma,> 25 µM
same,TGI,SK-MEL-5 melanoma,> 25 µM
same,GI50,A498 renal,> 25 µM
same,TGI,A498 renal,> 25 µM
same,GI50,HCT-15 colon,> 25 µM
same,TGI,HCT-15 colon,> 25 µM
same,GI50,RXF 393 renal,> 25 µM
same,TGI,RXF 393 renal,> 25 µM
same,GI50,OVCAR-8 ovarian,> 25 µM
same,TGI,OVCAR-8 ovarian,> 25 µM
same,GI50,RPMI-8226 leukemia,> 25 µM
same,TGI,RPMI-8226 leukemia,> 25 µM
same,GI50,MDA-MB-231 breast,> 25 µM
same,TGI,MDA-MB-231 breast,> 25 µM
same,GI50,NCI-H23 lung,> 25 µM
same,TGI,NCI-H23 lung,> 25 µM
same,GI50,SF-268 CNS,> 13.8 µM
same,TGI,SF-268 CNS,> 25 µM
same,GI50,MCF7 breast,> 25 µM
same,TGI,MCF7 breast,> 25 µM
same,GI50,KM12 colon,> 25 µM
same,TGI,KM12 colon,> 25 µM
same,GI50,SK-MEL-28 melanoma,> 25 µM
same,TGI,SK-MEL-28 melanoma,> 25 µM
same,GI50,HCC-2998 colon,> 25 µM
same,TGI,HCC-2998 colon,> 25 µM
same,GI50,OVCAR-3 ovarian,> 25 µM
same,TGI,OVCAR-3 ovarian,> 25 µM
same,GI50,NCI-H522 lung,> 25 µM
same,TGI,NCI-H522 lung,> 25 µM
same,GI50,OVCAR-4 ovarian,> 25 µM
same,TGI,OVCAR-4 ovarian,> 25 µM
same,GI50,IGROV1 ovarian,> 25 µM
same,TGI,IGROV1 ovarian,> 25 µM
same,GI50,OVCAR-5 ovarian,> 25 µM
same,TGI,OVCAR-5 ovarian,> 25 µM
same,GI50,SN12C renal,> 25 µM
same,TGI,SN12C renal,> 25 µM
same,GI50,UO-31 renal,> 25 µM
same,TGI,UO-31 renal,> 25 µM
same,GI50,A549 NSCLC,> 25 µM
same,TGI,A549 NSCLC,> 25 µM
same,GI50,HCT-116 colon,> 25 µM
same,TGI,HCT-116 colon,> 25 µM
same,GI50,ACHN renal,> 25 µM
same,TGI,ACHN renal,> 25 µM
same,GI50,UACC-62 melanoma,> 25 µM
same,TGI,UACC-62 melanoma,> 25 µM
same,GI50,UACC-257 melanoma,> 25 µM
same,TGI,UACC-257 melanoma,> 25 µM
same,GI50,T-47D breast,> 25 µM
same,TGI,T-47D breast,> 25 µM
same,GI50,HT29 colon,> 25 µM
same,TGI,HT29 colon,> 25 µM
same,GI50,CAKI-1 renal,> 25 µM
same,TGI,CAKI-1 renal,> 25 µM
same,GI50,SK-MEL-2 melanoma,> 25 µM
same,TGI,SK-MEL-2 melanoma,> 25 µM
same,GI50,CCRF-CEM leukemia,24.2 µM
same,TGI,CCRF-CEM leukemia,> 25 µM
same,GI50,NCI-H226 lung,> 25 µM
same,TGI,NCI-H226 lung,> 25 µM
same,GI50,NCI-H460 lung,> 25 µM
same,TGI,NCI-H460 lung,> 25 µM
same,GI50,SW-620 colon,> 25 µM
same,TGI,SW-620 colon,> 25 µM
same,GI50,MOLT-4 leukemia,> 25 µM
same,TGI,MOLT-4 leukemia,> 25 µM
same,GI50,TK-10 renal,> 25 µM
same,TGI,TK-10 renal,> 25 µM
same,GI50,U251 CNS,18.6 µM
same,TGI,U251 CNS,> 25 µM
same,GI50,SF-295 CNS,> 25 µM
same,TGI,SF-295 CNS,> 25 µM
same,GI50,BT-549 breast,> 25 µM
same,TGI,BT-549 breast,> 25 µM
same,GI50,SR leukemia,> 25 µM
same,TGI,SR leukemia,> 25 µM
same,GI50,DU-145 prostate,> 20.4 µM
same,TGI,DU-145 prostate,> 25 µM
same,GI50,SK-OV-3 ovarian,> 25 µM
same,TGI,SK-OV-3 ovarian,> 25 µM
same,GI50,786-0 renal,> 25 µM
same,TGI,786-0 renal,> 25 µM
same,GI50,COLO 205 colon,> 25 µM
same,TGI,COLO 205 colon,> 25 µM
same,GI50,MDA-MB-435,> 25 µM
same,TGI,MDA-MB-435,> 25 µM
same,GI50,SNB-19 CNS,> 25 µM
same,TGI,SNB-19 CNS,> 25 µM
same,GI50,SF-539 CNS,> 25 µM
same,TGI,SF-539 CNS,> 25 µM
same,GI50,NCI/ADR-RES ovarian,> 25 µM
same,TGI,NCI/ADR-RES ovarian,> 25 µM
same,GI50,PC-3 prostate,> 25 µM
same,TGI,PC-3 prostate,> 25 µM
same,GI50,HL-60(TB) leukemia,> 25 µM
same,TGI,HL-60(TB) leukemia,> 25 µM
